Tested on: human primary NOK
Assay: Replicative senescence / cumulative population doublings
Type: cell-based
Settings: in the presence of rapamycin; estimated
Experimental: NOK were plated in collagen coated LabTek chamber slides and treated with vehicle or 20 nM rapamycin for 3 days. Cells were then γ-irradiated or not, and further treated with vehicle or rapamycin for 24 h. For TUNEL assay cells were processed for staining immediately, for SA-β-gal cells were passed and assessed 4 days after plating. Apoptosis was detected using the CLICK-IT™ TUNEL ALEXA FLUOR™ 594 Imaging Assay (Life Technologies, Carlsbad, Calif.) and SA-β-gal activity was measured using the SA-β-gal kit (Cell Signaling Technology, Danvers, Mass.) according to the manufacturer's instructions. The proportion of positive cells was determined by fluorescence or transmission microscopy and quantified using ImageJ. Eight different fields containing approximately 60 cells each were quantified per condition. For the calculation of population doublings cells were cultured as described and treated with vehicle or 20 nM rapamycin. Population doublings were calculated every passage using the formula x=[log 10(NH/N1)]/log 10(2)] (Cristofalo et al., PNAS, 95, 10614-10619 (1998)), where N1 is the inoculum cell number and NH the cell harvest number. To yield the cumulated doubling doublings, the population doublings for each passage was calculated and then added to the population doubling levels of the previous passages.

CO[C@H]1C[C@@H]2CC[C@@H](C)[C@@](O)(O2)C(=O)C(=O)N2CCCC[C@H]2C(=O)O[C@H]([C@H](C)C[C@@H]2CC[C@@H](O)[C@H](OC)C2)CC(=O)[C@H](C)/C=C(\C)[C@@H](O)[C@@H](OC)C(=O)[C@H](C)C[C@H](C)/C=C/C=C/C=C/1C [rapamycin]
cells a single cell will give rise to before senescence: around 10^17 cells

From patent US9278090B2, “Methods of preventing the development of mucositis and related disorders” (The United States of America, as represented by the …, priority 2012, dated 2016)
